Where a SMILES comes first, the peptide text is derived from it. The star is where a group is joined. Cbz = O=C(OCc1ccccc1)*; CH2F = FC*
Columns and labels:
[1] = molecular target: Pseudomonas aeruginosa hemolytic phospholipase C PlcHR2, wild type (Pseudomonas aeruginosa, UniProt P06200); type: biochemical
HUVEC = type: cell-based, Homo sapiens

Chain of Pseudomonas aeruginosa hemolytic phospholipase C PlcHR2, wild type (P06200 39-730 limits assumed): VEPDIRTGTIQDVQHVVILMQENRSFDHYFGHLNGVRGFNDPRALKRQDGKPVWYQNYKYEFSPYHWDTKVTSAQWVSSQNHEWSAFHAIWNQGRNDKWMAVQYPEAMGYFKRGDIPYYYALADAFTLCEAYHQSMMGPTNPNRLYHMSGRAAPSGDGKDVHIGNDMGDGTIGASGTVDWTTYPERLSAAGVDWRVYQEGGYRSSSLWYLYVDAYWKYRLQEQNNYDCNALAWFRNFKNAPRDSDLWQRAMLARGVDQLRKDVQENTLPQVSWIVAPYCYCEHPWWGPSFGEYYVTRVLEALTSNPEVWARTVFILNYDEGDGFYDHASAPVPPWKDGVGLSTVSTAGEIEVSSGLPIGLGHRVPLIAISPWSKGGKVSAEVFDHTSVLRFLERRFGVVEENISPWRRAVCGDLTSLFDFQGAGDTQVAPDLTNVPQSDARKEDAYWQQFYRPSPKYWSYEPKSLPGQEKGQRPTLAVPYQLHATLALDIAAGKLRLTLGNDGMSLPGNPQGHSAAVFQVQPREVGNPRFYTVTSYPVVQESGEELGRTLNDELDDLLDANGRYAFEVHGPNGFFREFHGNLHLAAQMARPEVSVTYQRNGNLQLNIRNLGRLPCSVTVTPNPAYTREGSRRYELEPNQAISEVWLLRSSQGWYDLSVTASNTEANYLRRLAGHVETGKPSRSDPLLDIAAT

SMILES | Km ([1]; pH 7.2) [mM] | Vmax ([1]; pH 7.2) [µmol/min/mg] | kcat ([1]; pH 7.2, 37° C.) [s⁻¹] | reduction of PlcHR2-induced LDH release (HUVEC)
C[N+](C)(C)CCOP(=O)([O-])Oc1ccc([N+](=O)[O-])cc1 [NPPC, ρ-nitrophenyl-phosphorylcholine] | 19 | 147 ± 6 | 192 | 
COC(=O)C[C@H](NC(=O)[C@H](C)NC(=O)[C@@H](NC(=O)OCc1ccccc1)C(C)C)C(=O)CF [Z-VAD-FMK] (Cbz-Val-Ala-Asp(OMe)-CH2F) |  |  |  | reduced the amount of LDH release

— patent US20100284992A1 (priority 2006, published 2010)
